Experimental data reported in patent publication US20030232383A1, “Novel reagentless sensing system for measuring carbohydrates based on the galactose/glucose binding protein” (priority 2001, published 2003).
Like-named read-outs stand apart in the source and are kept apart here.

What was measured:
[1] = molecular target: calcium binding site of GBP (Escherichia coli, UniProt P0AEE5); settings: Vyas et al. 1989, cited from earlier work
GBP = GBP (Escherichia coli, UniProt P0AEE5); settings: Miller et al. 1983; read-out: dissociation constants, Kd; cited from earlier work
GBP, sequence (P0AEE5 24-332): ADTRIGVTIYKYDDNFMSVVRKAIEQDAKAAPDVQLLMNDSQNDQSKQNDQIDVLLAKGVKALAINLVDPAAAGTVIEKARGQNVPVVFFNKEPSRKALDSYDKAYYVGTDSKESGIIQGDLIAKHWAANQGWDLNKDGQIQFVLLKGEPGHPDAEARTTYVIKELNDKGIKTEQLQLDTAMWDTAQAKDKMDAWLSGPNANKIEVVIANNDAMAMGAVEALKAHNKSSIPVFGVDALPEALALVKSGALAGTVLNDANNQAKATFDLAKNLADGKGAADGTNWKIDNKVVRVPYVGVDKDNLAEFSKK

[2] = molecular target: GBP mutant M182C (Met182Cys) (Escherichia coli, UniProt P0AEE5, M205C); assay: Steady-state fluorescence of fluorophore-labeled GBP mutant M182C on ligand binding; parameters: species or system E. coli
GBP mutant M182C (Met182Cys), sequence (P0AEE5 24-332 M205C): as the sequence (P0AEE5 24-332) above, with M182C counted along it
Protocol: Labeling the mutants of GBP with fluorescent probes. The mutant protein was first dialysed three times against either 10 mM Tris-HCl, 1 mM DTT, 0.2 mM CaCl2, pH 8.0 (for reaction with MDCC) or 10 mM HEPES, 1 mM DTT, 0.2 mM CaCl2, pH 7.4 (for reaction with acrylodan, 1,5-IAEDANS, or IANBD ester). DTT was present in the buffers to reduce any disulfide linkages that may have formed between two protein molecules. The protein was then dialysed three times against the respective buffers (with no DTT) to remove excess of the reducing agent. For the conjugation reaction, a molar ratio of fluorophore to protein of 5:1 was employed. The fluorophores were added slowly to the mutants of GBP (μM concentrations) so as to allow the cysteine residue on all the protein molecules to have an equal opportunity to react with the fluorophore. The solution was stirred constantly in a glass reaction vessel and in the dark for 4 h at 4° C. […]
Steady-state fluorescence studies of the fluorophore-labeled mutant proteins. […] The concentrations of labeled proteins used in the steady-state fluorescence studies were in the 1×10^−7 M range. […] The samples were analyzed in the spectrofluorometer under the aforementioned parameters. Calibration plots were obtained by relating the average fluorescence change with the concentration of glucose or galactose in the sample.

[3] = molecular target: GBP mutant G148C (Gly148Cys) (Escherichia coli, UniProt P0AEE5, G171C); assay type: binding, E. coli
GBP mutant G148C (Gly148Cys), sequence (P0AEE5 24-332 G171C limits assumed): as the sequence (P0AEE5 24-332) above, with G148C counted along it
Protocol: (§1) Labeling the mutants of GBP with fluorescent probes. The mutant protein was first dialysed three times against either 10 mM Tris-HCl, 1 mM DTT, 0.2 mM CaCl2, pH 8.0 (for reaction with MDCC) or 10 mM HEPES, 1 mM DTT, 0.2 mM CaCl2, pH 7.4 (for reaction with acrylodan, 1,5-IAEDANS, or IANBD ester). DTT was present in the buffers to reduce any disulfide linkages that may have formed between two protein molecules. The protein was then dialysed three times against the respective buffers (with no DTT) to remove excess of the reducing agent. For the conjugation reaction, a molar ratio of fluorophore to protein of 5:1 was employed. The fluorophores were added slowly to the mutants of GBP (μM concentrations) so as to allow the cysteine residue on all the protein molecules to have an equal opportunity to react with the fluorophore. The solution was stirred constantly in a glass reaction vessel and in the dark for 4 h at 4° C. (with MDCC and acrylodan) or for 2-3 h at RT (with 1,5-IAEDANS or IANBD ester). The conjugated protein was separated from the free fluorophore by running the sample through a Sephadex G-25 column and eluting with the respective buffer.
(§2) Steady-state fluorescence studies of the fluorophore-labeled mutant proteins. The excitation and emission monochromator slit widths were both set at 2 mm. The excitation and emission wavelengths for MDCC, acrylodan, 1,5-IAEDANS, and IANBD ester were 425 nm and 475 nm, 382 nm and 509 nm, 336 nm and 490 nm, and 472 nm and 536 nm, respectively. All data were obtained at RT using quartz cuvettes with sample volumes of 1.5-2 mL. The concentrations of labeled proteins used in the steady-state fluorescence studies were in the 1×10^−7 M range. The conjugates were incubated with various concentrations of glucose and galactose for 15-20 min at RT on a shaker at 400 rpm. The samples were analyzed in the spectrofluorometer under the aforementioned parameters. Calibration plots were obtained by relating the average fluorescence change with the concentration of glucose or galactose in the sample.

[4] = molecular target: GBP mutant H152C (His152Cys) (Escherichia coli, UniProt P0AEE5, H175C); assay type: binding, E. coli
GBP mutant H152C (His152Cys), sequence (P0AEE5 24-332 H175C limits assumed): as the sequence (P0AEE5 24-332) above, with H152C counted along it
Protocol: as §1, §2

GBP labeled with D-22 = GBP labeled with D-22 (Escherichia coli, UniProt P0AEE5); assay: Steady-state fluorescence of D-22-labeled (dansylated) GBP; assay type: binding, E. coli; settings: addition of 1.6×10^−4 M sugar; protein to fluorophore 1:50, 1:100, 1:200
GBP labeled with D-22, sequence (P0AEE5 24-332 limits assumed): as the sequence (P0AEE5 24-332) above
Protocol: Labeling GBP with D-22. GBP was dialysed three times against 0.1 M NaHCO3, pH 9.0. Three conjugation reactions with protein to fluorophore mole ratios of 1:50, 1:100, and 1:200 were carried out. Three microvials, each containing GBP, were placed in an ice bath. The fluorophore was added to the vials in small increments while the solution was being stirred. The mixture was allowed to react in the dark at 4° C. for 1 h. To eliminate the excess of unbound D-22, size exclusion chromatography was employed. A D-Salt Polyacrylamide 6000 desalting column was equilibrated with 10 mM Tris-HCl, pH 8.0. The conjugates were loaded onto the column. Elution of the labeled protein was conducted with the equilibration buffer and the conjugate finally dialysed three times against 10 mM Tris-HCl, pH 8.0.
Steady-state fluorescence studies of the labeled GBP. Fluorescence measurements were conducted with sample volumes of 1.5 mL and in quartz cuvettes. After the addition of 30 μL of D-(+)-galactose and D-(+)-glucose to the conjugate, the solution was allowed to incubate for 15 min at 4° C. while mixing at 400 rpm. The excitation and emission monochromator slit widths were set at 2 mm. The excitation wavelength was 350 nm and emission was detected at 475 nm.

calcium binding site of GBP, sequence (P0AEE5 24-332 limits assumed): as the sequence (P0AEE5 24-332) above

[Ca+2] [calcium]
Kd ([1]; read-out: dissociation constant): 2 µM

[Tb+3] [terbium]
dissociation rate [1]: 0.001 s⁻¹

O=C[C@H](O)[C@@H](O)[C@@H](O)[C@H](O)CO [Galactose, D-(+)-galactose]
Kd (GBP): 400 µM | % quenching ([2]; M182C labeled with Acrylodan): 5% | % quenching ([2]; M182C labeled with MDCC): 6% | % quenching ([3]; G148C labeled with IAEDANS): 7% | % quenching ([3]; G148C labeled with MDCC): 16% | % quenching ([4]; H152C labeled with IANBD): 4% | % quenching ([4]; H152C labeled with MDCC): 19% | change of fluorescence signal of dansylated GBP (GBP labeled with D-22): quenching of the fluorescence signal
